Measurements taken from PMC12030627, “Radioiodinated Bicyclic RGD Peptide Derivatives for Enhanced Tumor Accumulation” (Pharmaceuticals, 2025).
Read-outs that look alike come from different tables or passages of the source.

Assay: Biodistribution in A549 and U-87 MG co-implantation mice
Type: in vivo, BALB/c nu-nu mice
Conditions: male, BALB/c nu-nu, mouse, iv, 37 kBq, total radioactivity, U-87 MG and A549 co-implanted mice, mean ± SD, n = 4
Experimental: Animal experiments were performed in compliance with institutional animal care regulations, with the study protocol approved by the Experimental Animal Committee of Osaka Medical and Pharmaceutical University (Approval Numbers: 21–76, 22–76, and 23–76). Four-week-old male BALB/c nu-nu mice (Japan SLC, Shizuoka, Japan) were housed under a 12 h light/12 h dark cycle with free access to food and water. Tumor-bearing mice were established by suspending U-87 MG cells (2 × 10^6 cells/mouse) in PBS(–) and subcutaneously injecting 100 μL of the suspension into the right hind leg. For co-implantation models, A549 cells (2 × 10^6 cells/mouse) were suspended in PBS(–) and inoculated (100 μL) into the left hind leg of the same mice already inoculated with U-87 MG cells. Mice with tumor size approximately 10 mm in diameter, 4–5 weeks after inoculation, were used for biodistribution studies. Animals in which either tumor was not viable were excluded from the experiment.
U-87 MG-bearing mice (n = 42, 8–9 weeks old; 22–27 g) were randomly assigned into groups and administered [^125I]bcRGDpal or [^125I]bcRGDiba via intravenous injection (37 kBq in 100 μL of PBS containing 0.1% Tween 80 (PBS-T80)). At 5 min, 30 min, 1 h, 2 h, 6 h, 12 h, or 24 h post-injection, the mice were euthanized (n = 3 per time point). The heart, kidneys, liver, brain, pancreas, spleen, lung, small intestine, large intestine, muscle, skin, stomach, bone, and tumors were excised. Each organ’s weight and radioactivity were measured by a NaI well-type scintillation counter, and the % ID/g was calculated. To investigate the correlation between integrin expression and radioactivity accumulation, biodistribution at 2 h after administration of [^125I]bcRGDpal or [^125I]bcRGDiba was assessed in A549 and U-87 MG co-implantation mice (n = 5) using the same procedure. Additionally, co-implantation mice were injected with [^125I]bcRGDdimer (37 kBq/100 μL PBS-T80) and euthanized at 30 min, 2 h, and 4 h post-injection (n = 4 per time point), and % ID/g values were calculated as described above. The minimum sample size needed for the biodistribution study in U-87 MG-bearing mice was calculated using G Power software version 3.1.9.7. The calculation was based on a two-tailed test, with an effect size of 3.9, a significance level (α) of 0.05, and a statistical power (1 − β) of 0.8. […] The minimum required sample size for the biodistribution study in A549 and U-87 MG co-implantation mice was also calculated to be four animals per group (effect size = 2.5, α = 0.05, 1 − β = 0.8). To guarantee objective results, the experiment was carried out in a blinded manner. Specifically, drug administration and radioactivity measurements were conducted by different investigators to eliminate potential bias.

SMILES: N=C(N)NCCC[C@@H]1NC(=O)[C@H]2CSCc3cc(cc(c3)CSC[C@H](C(N)=O)NC(=O)[C@H](CC(=O)O)NC(=O)CNC1=O)CSC[C@H](NC(=O)CNC(=O)[C@H](CO)NC(=O)c1ccc(NC(=O)CNC(=O)[C@H](CO)NC(=O)[C@@H]3CCCN3C(=O)[C@@H]3CCCN3C(=O)[C@@H]3CCCN3C(=O)CCc3cn(CC[C@H](NC(=O)CCNC(=O)c4cccc(I)c4)C(=O)N4CCC[C@H]4C(=O)N4CCC[C@H]4C(=O)N4CCC[C@H]4C(=O)N[C@@H](CO)C(=O)NCC(=O)Nc4ccc(C(=O)N[C@@H](CO)C(=O)NCC(=O)N[C@H]5CSCc6cc7cc(c6)CSC[C@@H](NC(=O)[C@H](CCC(N)=O)NC(=O)[C@@H]6CCCN6C(=O)[C@H](Cc6c[nH]cn6)NC5=O)C(=O)N[C@@H](CCCNC(=N)N)C(=O)NCC(=O)N[C@@H](CC(=O)O)C(=O)N[C@@H](C(N)=O)CSC7)cc4)nn3)cc1)C(=O)N[C@@H](Cc1c[nH]cn1)C(=O)N1CCC[C@H]1C(=O)N[C@@H](CCC(N)=O)C(=O)N2 [[^125I]bcRGDdimer]
- tissue uptake at 0.5 h (A549 tumor, 30 min after i.v. administration, read-out: Radioactivity in A549 tumor): 1.7 ± 0.6 %ID/g
- tissue uptake at 2 h (A549 tumor, 2 h after i.v. administration, read-out: Radioactivity in A549 tumor): 0.8 ± 0.2 %ID/g
- tissue uptake at 4 h (A549 tumor, 4 h after i.v. administration, read-out: Radioactivity in A549 tumor): 0.4 ± 0.1 %ID/g
- tissue uptake at 0.5 h (U-87 MG tumor, 30 min after i.v. administration, read-out: Radioactivity in U-87 MG tumor): 7.5 ± 0.8 %ID/g
- tissue uptake at 2 h (U-87 MG tumor, 2 h after i.v. administration, read-out: Radioactivity in U-87 MG tumor): 4.2 ± 1.1 %ID/g
- tissue uptake at 4 h (U-87 MG tumor, 4 h after i.v. administration, read-out: Radioactivity in U-87 MG tumor): 2.9 ± 0.4 %ID/g
- tissue uptake at 2 h (blood, 2 h after i.v. administration, read-out: Radioactivity in blood): 0.3 %ID/g
- tissue uptake at 0.5 h (bone, 30 min after i.v. administration, read-out: Radioactivity in bone): 1.5 ± 0.3 %ID/g
- tissue uptake at 2 h (bone, 2 h after i.v. administration, read-out: Radioactivity in bone): 0.9 ± 0.3 %ID/g
- tissue uptake at 4 h (bone, 4 h after i.v. administration, read-out: Radioactivity in bone): 0.4 %ID/g
- tissue uptake at 0.5 h (brain, 30 min after i.v. administration, read-out: Radioactivity in brain): 0.1 %ID/g
- tissue uptake at 0.5 h (heart, 30 min after i.v. administration, read-out: Radioactivity in heart): 0.6 ± 0.1 %ID/g
- tissue uptake at 2 h (heart, 2 h after i.v. administration, read-out: Radioactivity in heart): 0.2 %ID/g
- tissue uptake at 4 h (heart, 4 h after i.v. administration, read-out: Radioactivity in heart): 0.1 %ID/g
- tissue uptake at 0.5 h (kidneys, 30 min after i.v. administration, read-out: Radioactivity in kidneys): 10.9 ± 2.6 %ID/g
- tissue uptake at 2 h (kidneys, 2 h after i.v. administration, read-out: Radioactivity in kidneys): 2 ± 0.2 %ID/g
- tissue uptake at 4 h (kidneys, 4 h after i.v. administration, read-out: Radioactivity in kidneys): 0.9 ± 0.2 %ID/g
- tissue uptake at 0.5 h (large intestine, 30 min after i.v. administration, read-out: Radioactivity in large intestine): 0.4 ± 0.2 %ID/g
- tissue uptake at 2 h (large intestine, 2 h after i.v. administration, read-out: Radioactivity in large intestine): 5.5 ± 1 %ID/g
- tissue uptake at 4 h (large intestine, 4 h after i.v. administration, read-out: Radioactivity in large intestine): 5.5 ± 1.4 %ID/g
- tissue uptake at 0.5 h (liver, 30 min after i.v. administration, read-out: Radioactivity in liver): 0.9 ± 0.1 %ID/g
- tissue uptake at 2 h (liver, 2 h after i.v. administration, read-out: Radioactivity in liver): 0.5 ± 0.1 %ID/g
- tissue uptake at 4 h (liver, 4 h after i.v. administration, read-out: Radioactivity in liver): 0.3 ± 0.1 %ID/g
- tissue uptake at 0.5 h (lung, 30 min after i.v. administration, read-out: Radioactivity in lung): 2.9 ± 0.5 %ID/g
- tissue uptake at 2 h (lung, 2 h after i.v. administration, read-out: Radioactivity in lung): 1.2 ± 0.3 %ID/g
- tissue uptake at 4 h (lung, 4 h after i.v. administration, read-out: Radioactivity in lung): 0.4 ± 0.1 %ID/g
- tissue uptake at 0.5 h (muscle, 30 min after i.v. administration, read-out: Radioactivity in muscle): 0.7 ± 0.1 %ID/g
- tissue uptake at 2 h (muscle, 2 h after i.v. administration, read-out: Radioactivity in muscle): 0.2 %ID/g
- tissue uptake at 4 h (muscle, 4 h after i.v. administration, read-out: Radioactivity in muscle): 0.1 %ID/g
- tissue uptake at 0.5 h (pancreas, 30 min after i.v. administration, read-out: Radioactivity in pancreas): 0.5 ± 0.1 %ID/g
- tissue uptake at 2 h (pancreas, 2 h after i.v. administration, read-out: Radioactivity in pancreas): 0.2 ± 0.1 %ID/g
- tissue uptake at 4 h (pancreas, 4 h after i.v. administration, read-out: Radioactivity in pancreas): 0.1 %ID/g
- tissue uptake at 0.5 h (small intestine, 30 min after i.v. administration, read-out: Radioactivity in small intestine): 3.6 ± 0.6 %ID/g
- tissue uptake at 2 h (small intestine, 2 h after i.v. administration, read-out: Radioactivity in small intestine): 2.3 ± 1 %ID/g
- tissue uptake at 4 h (small intestine, 4 h after i.v. administration, read-out: Radioactivity in small intestine): 1.6 ± 0.4 %ID/g
- tissue uptake at 0.5 h (spleen, 30 min after i.v. administration, read-out: Radioactivity in spleen): 0.7 ± 0.2 %ID/g
- tissue uptake at 2 h (spleen, 2 h after i.v. administration, read-out: Radioactivity in spleen): 0.3 ± 0.1 %ID/g
- tissue uptake at 4 h (spleen, 4 h after i.v. administration, read-out: Radioactivity in spleen): 0.2 %ID/g
- tissue uptake dose at 0.5 h (stomach, 30 min after i.v. administration): 0.6 ± 0.5 %ID
- tissue uptake dose at 2 h (stomach, 2 h after i.v. administration): 0.2 %ID
- tissue uptake dose at 4 h (stomach, 4 h after i.v. administration): 0.3 ± 0.3 %ID
- tissue uptake at 0.5 h (whole blood, 30 min after i.v. administration, read-out: Radioactivity in blood): 1.1 ± 0.1 %ID/g
- tissue uptake at 2 h (whole blood, 2 h after i.v. administration, read-out: Radioactivity in blood): 0.3 ± 0.1 %ID/g
- tissue uptake at 4 h (whole blood, 4 h after i.v. administration, read-out: Radioactivity in blood): 0.2 ± 0.1 %ID/g
